Patent US6342514B1, “Compositions and methods for treating bone deficit conditions” (ZymoGenetics, Inc., priority 1996, dated 2002)

What was measured:
mouse BMP2 promoter = experiment: High throughput screening: BMP-2 promoter luciferase reporter assay in 2T3-BMP-2-LUC cells; assay type: cell-based; conditions: at about 3 μM
Description: A rapid throughput screening test for compounds capable of stimulating expression of a reporter gene linked to a BMP promoter (a surrogate for the production of bone morphogenetic factors that are endogenously produced) is described in U.S. application Ser. No. 08/458,434, filed Jun. 2, 1995, the contents of which are incorporated herein by reference. This assay is also described as a portion of a study of immortalized murine osteoblasts (derived from a mouse expressing a transgene composed of a BMP2 promoter driving expression of T-antigen) in Ghosh-Choudhery, N. et al. Endocrinology (1996) 137:331-39. […]
Briefly, the assay utilizes cells transformed permanently or transiently with constructs in which the promoter of a bone morphogenetic protein, specifically BMP2 or BMP4, is coupled to a reporter gene, typically luciferase. These transformed cells are then evaluated for the production of the reporter gene product; compounds that activate the BMP promoter will drive production of the reporter protein, which can be readily assayed. […]
The treated cells were incubated for 24 hours at 37° C. and 5% CO2. […] Luminescence was measured on an automated 96-well luminometer, and was expressed as either picograms of luciferase activity per well or as picograms of luciferase activity per microgram of protein. […]

[1] = system: calvarial bone of ICR Swiss white mice; experiment: In vivo assay of effects of compounds on murine calvarial bone growth; parameters: species or system mouse; conditions: subcutaneous injection over right calvaria, day 14, compared to vehicle control
Description: Male ICR Swiss white mice, aged 4-6 weeks and weighing 13-26 gm, are employed, using 4-5 mice per group. The calvarial bone growth assay is performed as described in PCT application WO 95/24211. Briefly, the test compound or appropriate control vehicle is injected into the subcutaneous tissue over the right calvaria of normal mice. Typically, the control vehicle is the vehicle in which the compound was solubilized, and is PBS containing 5% DMSO or is PBS containing Tween (2 μl/10 ml). The animals are sacrificed on day 14 and bone growth measured by histomorphometry. Bone samples for quantitation are cleaned from adjacent tissues and fixed in 10% buffered formalin for 24-48 hours, decalcified in 14% EDTA for 1-3 weeks, processed through graded alcohols; and embedded in paraffin wax. Three to five μm sections of the calvaria are prepared, and representative sections are selected for histomorphometric assessment of the effects on bone formation and bone resorption. Sections are measured by using a camera lucida attachment to trace directly the microscopic image onto a digitizing plate. Bone changes are measured on sections cut 200 μm apart, over 4 adjacent 1×1 mm fields on both the injected and noninjected sides of the calvaria. New bone is identified by its characteristic woven structure, and osteoclasts and osteoblasts are identified by their distinctive morphology. […]

[2] = system: TMC-23 mouse clonal chondrogenic cell line; experiment: Chondrogenic activity: alkaline phosphatase (ALP) activity in TMC-23 cells; assay type: cell-based; conditions: day 2, 10^−9 M, compared to vehicle control
Description: Briefly, a mouse clonal chondrogenic cell line, TMC-23, was isolated and cloned from costal cartilage of transgenic mice containing the BMP-2 gene control region driving SV-40 large T-antigen, generated as described in Ghosh-Choudhury et al Endocrinology 137:331-39, 1996.
For measurement of alkaline phosphatase (ALP) activity, the technique of LF Bonewald et al. J Biol Chem (1992) 267:8943-49, was employed. Briefly, TMC-23 cells were plated in 96 well microtiter plates in DMEM containing 10% FCS at 4×10^3 cells/well. Two days after plating, the cells were confluent and the medium was replaced with fresh medium containing 10% FCS and different concentrations of compounds or recombinant BMP-2. After an additional 2 or 5 days incubation, the plates were washed twice with PBS, and then lysing solution (0.05% Triton X-100) was added (100 μl/well). The cells were lysed by three freeze-thaw cycles of −70° C. (30 min), followed by 37° C. (30 min with shaking). […] The spectrophotometric absorbance at 405 nm was compared to that of p-nitrophenol standards to estimate ALP activity in the samples. The protein content of the cell lysates was determined by the Bio-Rad protein assay kit (Bio-Rad, Hercules, Calif.). Specific activity was calculated using these two parameters.

## c1ccc(N=NC2=NNc3ccccc3S2)cc1 [Compound 59-0008, 3-phenylazo-1H-4,1,2-benzothiadiazine]
Mouse BMP2 promoter
  luciferase response at maximal activity: approximately 175 light emission units
[1]
  increase in width of new calvarial bone: 4 fold
[2]
  increase of ALP levels: approximately 3 fold
